Data published in patent publication US20180338980A1, “AROMATIC SULFONAMIDE DERIVATIVES” (BAYER PHARMA AKTIENGESELLSCHAFT, priority 2015, published 2018).
pIC50: −log10 of the molar value.

Assays:
Format in all cases: cell-based
mouse P2X4 receptors = molecular target: T1, mouse P2X4 receptors (Mus musculus, UniProt Q9JJX6); assay: Assay B: mouse P2X4 receptor cell line, Fluo8 fluorescence FLIPR (agonist Bz-ATP at EC50); conditions: HEK mouse P2X4 cell line, agonist Bz-ATP at EC50, average
T1 construct: host or cells: HEK 293 (recombinant, constitutively expressing)
T1 sequence (Q9JJX6 1-388): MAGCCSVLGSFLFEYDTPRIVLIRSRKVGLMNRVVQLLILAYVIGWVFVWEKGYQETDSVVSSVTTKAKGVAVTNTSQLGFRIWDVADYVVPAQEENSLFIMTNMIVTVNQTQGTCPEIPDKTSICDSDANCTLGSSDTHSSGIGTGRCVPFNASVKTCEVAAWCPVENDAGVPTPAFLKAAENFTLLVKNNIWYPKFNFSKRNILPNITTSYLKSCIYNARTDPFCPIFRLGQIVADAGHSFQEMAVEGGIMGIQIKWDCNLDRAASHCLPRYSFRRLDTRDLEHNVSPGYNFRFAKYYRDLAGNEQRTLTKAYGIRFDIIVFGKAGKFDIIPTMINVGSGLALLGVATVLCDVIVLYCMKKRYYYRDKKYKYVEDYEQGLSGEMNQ
Method: The identification of agonists and antagonists of the P2X4 receptor from humans and […] also the quantification of the activity of the compounds of the invention was performed by use of recombinant cell lines. […] The test cell lines constitutively express the mouse or human P2X4 receptors. Stimulation of the receptors with an agonist leads to a conformational change of P2X4 and influx of extracellular calcium ions through the ion channel. The cytoplasmatic calcium transient is detected via the calcium sensitive dye Fluo8 for the mouse P2×4 cell line or in case of the human P2×4 cell line a stably expressed calcium-sensitive photoprotein, mitochondrial photina, which, after reconstitution with the cofactor coelenterazine, emits light in dependence of calcium binding [Bovolenta S, Foti M, Lohmer S, Corazza S., J Biomol Screen. […] The strength of Fluo8 fluorescence signal or photina luminescence signal corresponds to the level of receptor activation. An inhibitor would decrease the signal depending on its potency and concentration.
On the day of the assay medium is exchanged by Fluo8 containing buffer for 30 minutes. In the fluorescence reader (FLIPR) test substances in various concentrations are added for 10 minutes. After baseline measurement the agonist Bz-ATP at EC50 concentration is applied and fluorescence is measured immediately.

P2X4 [1] = molecular target: T2, P2X4 (Homo sapiens, UniProt Q99571); assay: Assay B: human P2X4 receptor cell line, mitochondrial photina luminescence (agonist Bz-ATP at EC50); parameters: host or cells: HEK 293 (recombinant, constitutively expressing; with mitochondrial photina in Assay B); conditions: for Emax: read-out: human P2X4 Assay B avg Efficacy
T2 sequence (Q99571 1-388): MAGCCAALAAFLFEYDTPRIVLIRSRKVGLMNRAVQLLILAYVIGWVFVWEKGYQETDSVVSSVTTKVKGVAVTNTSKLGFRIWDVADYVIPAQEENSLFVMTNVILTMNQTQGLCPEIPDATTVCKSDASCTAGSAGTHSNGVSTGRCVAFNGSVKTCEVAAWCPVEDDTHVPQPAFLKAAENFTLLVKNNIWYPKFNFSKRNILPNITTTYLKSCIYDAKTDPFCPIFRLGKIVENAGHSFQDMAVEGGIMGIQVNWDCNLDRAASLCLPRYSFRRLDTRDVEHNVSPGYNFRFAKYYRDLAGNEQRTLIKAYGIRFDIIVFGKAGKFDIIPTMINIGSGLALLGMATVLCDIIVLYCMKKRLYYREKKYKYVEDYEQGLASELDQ
Summary of the method: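 Bz-ATP at its EC50 activates human P2X4 stably expressed in a cell line that also carries the calcium-sensitive photoprotein mitochondrial photina (coelenterazine cofactor). Light emitted on calcium influx is measured straight away in a luminometer. Reduced luminescence indicates antagonism.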

P2X4 [2] = molecular target: T2, P2X4; assay: Assay A: human P2X4 receptor cell line, FLIPR calcium assay (Fluo-8, agonist Bz-ATP at EC80); parameters: host or cells: HEK 293 (recombinant, constitutively expressing; with mitochondrial photina in Assay B); conditions: for pIC50: Bz-ATP at EC80, average values; for Emax: read-out: human P2X4 Assay A avg Efficacy
Summary of the method: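 Antagonism read as inhibition of the calcium response to EC80 Bz-ATP, by peak-over-basal Fluo-8 fluorescence over 120 s, normalized to DMSO wells. Human P2X4-HEK cells, dye-loaded 30 min in probenecid-containing HBSS/HEPES pH 7.4, received compound 30 min beforehand at room temperature, 0.5% DMSO final. Triplicates fitted for IC50, maximal inhibition and Hill slope.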

[3] = HEK human P2X4 cell line, photina luminescence, agonist Bz-ATP at EC50, average
[4] = HEK human P2X4 cells, Fluo-8 FLIPR
[5] = percentage of maximal inhibition, HEK human P2X4 cells, Fluo-8 FLIPR

Row | SMILES | pIC50 (P2X4 [1]; [3]) | Emax (P2X4 [1]; [3]) [%] | pIC50 (P2X4 [2]; [4]) | Emax (P2X4 [2]; [5]) [%] | other results
1 | NS(=O)(=O)c1cc(NC(=O)Cc2ccccc2Cl)ccc1Oc1cncc(Cl)c1 [Example 029, 2-(2-Chlorophenyl)-N-{4-[(5-chloropyridin-3-yl)oxy]-3-sulfamoylphenyl}acetamide] |  |  |  |  | mouse P2X4 Assay B avg Efficacy (mouse P2X4 receptors): 50%
2 | NS(=O)(=O)c1cc(NC(=O)Cc2c(F)cccc2Cl)ccc1Oc1cccc(Cl)c1 [Example 100, 2-(2-Chloro-6-fluorophenyl)-N-[4-(3-chlorophenoxy)-3-sulfamoylphenyl]acetamide] |  |  |  |  | mouse P2X4 Assay B avg Efficacy (mouse P2X4 receptors): 43%
3 | NS(=O)(=O)c1cc(NC(=O)Cc2ccccc2)ccc1OCc1ccccc1 [Example 146, N-[4-(Benzyloxy)-3-sulfamoylphenyl]-2-phenylacetamide] | 6.50 | 71 |  |  | pIC50 (mouse P2X4 receptors): < 4.30; mouse P2X4 Assay B avg Efficacy (mouse P2X4 receptors): 7%
4 | C=C(C)c1ccccc1Oc1ccc(NC(=O)Cc2ccccc2Cl)cc1S(N)(=O)=O [Example 178, 2-(2-Chlorophenyl)-N-{4-[2-(prop-1-en-2-yl)phenoxy]-3-sulfamoylphenyl}acetamide] | 6.31 | 56 | 6.41 | 76 | 
5 | Cc1ccc(CC(=O)Nc2ccc(Oc3cccc(Cl)c3)c(S(N)(=O)=O)c2)cc1 [Example 179, N-[4-(3-Chlorophenoxy)-3-sulfamoylphenyl]-2-(4-methylphenyl)acetamide] |  | 65 |  | 69 | 
6 | NS(=O)(=O)c1cc(NC(=O)Cc2ccc(Cl)cc2)ccc1Oc1cccc(Cl)c1 [Example 180, N-[4-(3-Chlorophenoxy)-3-sulfamoylphenyl]-2-(4-chlorophenyl)acetamide] |  | 63 |  | 76 | 
7 | NS(=O)(=O)c1cc(NC(=O)Cc2ccccn2)ccc1Oc1cccc(Cl)c1 [Example 185, N-[4-(3-Chlorophenoxy)-3-sulfamoylphenyl]-2-(pyridin-2-yl)acetamide] | 6.25 | 77 |  |  | pIC50 (mouse P2X4 receptors): < 4.80; mouse P2X4 Assay B avg Efficacy (mouse P2X4 receptors): 22%
8 | NS(=O)(=O)c1cc(NC(=O)Cc2ccccc2Cl)ccc1Oc1cccc(Cl)c1 [Example 187, N-[4-(3-Chlorophenoxy)-3-sulfamoylphenyl]-2-(2-chlorophenyl)acetamide] |  |  |  |  | mouse P2X4 Assay B avg Efficacy (mouse P2X4 receptors): 41%
9 | COc1cccc(CC(=O)Nc2ccc(Oc3cccc(Cl)c3)c(S(N)(=O)=O)c2)c1 [Example 191, N-[4-(3-Chlorophenoxy)-3-sulfamoylphenyl]-2-(3-methoxyphenyl)acetamide] | 6.83 | 72 | 7.30 | 85 | 
10 | COc1ccccc1CC(=O)Nc1ccc(Oc2cccc(Cl)c2)c(S(N)(=O)=O)c1 [Example 192, N-[4-(3-Chlorophenoxy)-3-sulfamoylphenyl]-2-(2-methoxyphenyl)acetamide] |  | 68 |  | 86 | 
11 | CC(C(=O)Nc1ccc(Oc2cccc(Cl)c2)c(S(N)(=O)=O)c1)c1ccccc1Cl (stereo not drawn) [Example 196, N-[4-(3-Chlorophenoxy)-3-sulfamoylphenyl]-2-(2-chlorophenyl)propanamide] |  |  |  |  | Emax (P2X4 [1]): 71%; Emax (P2X4 [2]): 82%
12 | NS(=O)(=O)c1cc(NC(=O)Cc2ccccc2Cl)ccc1OC1CCCCC1 [Example 200, 2-(2-Chlorophenyl)-N-[4-(cyclohexyloxy)-3-sulfamoylphenyl]acetamide] |  | 83 |  | 86 | 
13 | COCCN(C)C(=O)c1cccc(CC(=O)Nc2ccc(Oc3cccc(Cl)c3)c(S(N)(=O)=O)c2)c1 [Example 208, 3-(2-{[4-(3-Chlorophenoxy)-3-sulfamoylphenyl]amino}-2-oxoethyl)-N-(2-methoxyethyl)-N-methylbenzamide] | 6.26 | 67 | 7.42 | 87 | 
14 | N#Cc1ccc(CC(=O)Nc2ccc(Oc3cccc(Cl)c3)c(S(N)(=O)=O)c2)cc1 [Example 224, N-[4-(3-Chlorophenoxy)-3-sulfamoylphenyl]-2-(4-cyanophenyl)acetamide] | 6.21 | 61 | 6.46 | 78 | 
15 | NS(=O)(=O)c1cc(NC(=O)Cc2ccc(F)cc2Cl)ccc1Oc1ccc(Cl)cc1 [Example 231, 2-(2-Chloro-4-fluorophenyl)-N-[4-(4-chlorophenoxy)-3-sulfamoylphenyl]acetamide] | 6.92 | 46 | 6.28 | 62 | 
16 | Cn1cc(Oc2ccc(NC(=O)Cc3ccccc3Cl)cc2S(N)(=O)=O)cn1 [Example 233, 2-(2-Chlorophenyl)-N-{4-[(1-methyl-1H-pyrazol-4-yl)oxy]-3-sulfamoylphenyl}acetamide] |  | 79 |  | 70 | 
17 | NS(=O)(=O)c1cc(NC(=O)Cc2ccc(C(F)F)cc2)ccc1Oc1ccc(Cl)cc1 [Example 234, N-[4-(4-Chlorophenoxy)-3-sulfamoylphenyl]-2-[4-(difluoromethyl)phenyl]acetamide] | 6.16 | 43 | 6.25 | 73 | 
18 | COc1ccc(CC(=O)Nc2ccc(Oc3ccc(Cl)cc3)c(S(N)(=O)=O)c2)c(Cl)c1 [Example 235, 2-(2-Chloro-4-methoxyphenyl)-N-[4-(4-chlorophenoxy)-3-sulfamoylphenyl]acetamide] | 6.10 | 69 | 6.33 | 79 | 
19 | CC(C)(O)c1ccc(Oc2ccc(NC(=O)Cc3ccccc3Cl)cc2S(N)(=O)=O)cc1 [Example 264, 2-(2-Chlorophenyl)-N-{4-[4-(2-hydroxypropan-2-yl)phenoxy]-3-sulfamoylphenyl}acetamide] |  | 80 |  | 62 | 
20 | CC1(C)CC(Oc2ccc(NC(=O)Cc3ccccc3Cl)cc2S(N)(=O)=O)CC(C)(C)O1 [Example 269, 2-(2-Chlorophenyl)-N-{3-sulfamoyl-4-[(2,2,6,6-tetramethyltetrahydro-2H-pyran-4-yl)oxy]phenyl}acetamide] | < 4.30 | 14 | < 4.60 | 37 | 
21 | CC(C)(O)c1cccc(Oc2ccc(NC(=O)Cc3ccccc3Cl)cc2S(N)(=O)=O)c1 [Example 274, 2-(2-Chlorophenyl)-N-{4-[3-(2-hydroxypropan-2-yl)phenoxy]-3-sulfamoylphenyl}acetamide] |  | 64 |  | 104 | 
22 | CC(C)(O)c1ccccc1Oc1ccc(NC(=O)Cc2ccccc2Cl)cc1S(N)(=O)=O [Example 275, 2-(2-Chlorophenyl)-N-{4-[2-(2-hydroxypropan-2-yl)phenoxy]-3-sulfamoylphenyl}acetamide] |  |  |  |  | mouse P2X4 Assay B avg Efficacy (mouse P2X4 receptors): 44%
23 | NS(=O)(=O)c1cc(NC(=O)Cc2c(Cl)ccc3c2CCO3)ccc1Oc1cccc(Cl)c1 [Example 278, 2-(5-Chloro-2,3-dihydro-1-benzofuran-4-yl)-N-[4-(3-chlorophenoxy)-3-sulfamoylphenyl]acetamide] | 6.74 | 65 | 6.86 | 82 | 
24 | NS(=O)(=O)c1cc(NC(=O)Cc2ccccc2F)ccc1OCC1CCOCC1 [Example 279, 2-(2-Fluorophenyl)-N-[3-sulfamoyl-4-(tetrahydro-2H-pyran-4-ylmethoxy)phenyl]acetamide] |  |  |  |  | Emax (P2X4 [1]): 85%; Emax (P2X4 [2]): 61%
